Active and inactive are the calls of the source. The rule behind the calls is not given here.

Data on 8 molecules can be found in ChEMBL document CHEMBL2412981, “Syntheses of procyanidin B2 and B3 gallate derivatives using equimolar condensation mediated by Yb(OTf)3 and their antitumor activities” (Bioorg Med Chem Lett, 2013).

For this experiment, the system named is PC-3. Kind of experiment: Antiproliferative activity against human PC3 cells at 10 to 100 uM after 48 hrs by hemocytometric cell counting method. The format is functional, cell-based.

`Oc1cc(O)c2c(c1)O[C@H](c1cc(O)c(O)c(O)c1)[C@@H](O)[C@@H]2c1c(O)cc(O)c2c1O[C@H](c1cc(O)c(O)c(O)c1)[C@@H](O)C2`: the inhibition result was “Active”.
With `O=C(O[C@@H]1[C@@H](c2c(O)cc(O)c3c2O[C@H](c2ccc(O)c(O)c2)[C@H](O)C3)c2c(O)cc(O)cc2O[C@@H]1c1ccc(O)c(O)c1)c1cc(O)c(O)c(O)c1`, the inhibition entry is “Active”.
Under `O=C(O[C@H]1[C@H](c2c(O)cc(O)c3c2O[C@H](c2ccc(O)c(O)c2)[C@@H](O)C3)c2c(O)cc(O)cc2O[C@@H]1c1ccc(O)c(O)c1)c1cc(O)c(O)c(O)c1` stands “Active”.
For `O=C(O[C@@H]1[C@@H](c2c(O)cc(O)c3c2O[C@H](c2ccc(O)c(O)c2)[C@H](OC(=O)c2cc(O)c(O)c(O)c2)C3)c2c(O)cc(O)cc2O[C@@H]1c1ccc(O)c(O)c1)c1cc(O)c(O)c(O)c1`, the inhibition entry is “Active”.
Under `O=C(O[C@@H]1Cc2c(O)cc(O)c([C@H]3c4c(O)cc(O)cc4O[C@H](c4ccc(O)c(O)c4)[C@@H]3O)c2O[C@@H]1c1ccc(O)c(O)c1)c1cc(O)c(O)c(O)c1` stands “Active”; under `O=C(O[C@@H]1Cc2c(O)cc(O)cc2O[C@@H]1c1cc(O)c(O)c(O)c1)c1cc(O)c(O)c(O)c1`, “Active”; under `O=C(O[C@H]1Cc2c(O)cc(O)c([C@@H]3c4c(O)cc(O)cc4O[C@H](c4ccc(O)c(O)c4)[C@H]3O)c2O[C@@H]1c1ccc(O)c(O)c1)c1cc(O)c(O)c(O)c1`, “Active”.
With `O=C(O[C@H]1[C@H](c2c(O)cc(O)c3c2O[C@H](c2ccc(O)c(O)c2)[C@@H](OC(=O)c2cc(O)c(O)c(O)c2)C3)c2c(O)cc(O)cc2O[C@@H]1c1ccc(O)c(O)c1)c1cc(O)c(O)c(O)c1`, the inhibition entry was “Active”.
